Measurements published in patent US11648223B2, “Receptor subtype and function selective retinoid and rexinoid compounds in combination with immune modulators for cancer immunotherapy” (Io Therapeutics, Inc., priority 2016, dated 2023).

Legend:
[1] = tested on: B16F10 tumor cells; assay: B16F10 melanoma engrafted C57BL/6 mice, survival; format: in vivo
Method: The anti-tumor effects of anti-CTLA-4 antibody treatment combined with 10 nM […] agonist (AGN204647 (IRX4647)) are examined in C57BL/6 mice engrafted with B16F10 tumor cells.

[2] = tested on: FoxP3+ Treg cells; assay: formation of FoxP3+ Treg cells (FIG. 3); format: cell-based
[3] = tested on: Th 17 cells; assay: formation of Th17 cells (FIG. 3); format: cell-based
[4] = tested on: CD4+ T cells; assay: in vivo T cell differentiation in mice (FoxP3 expression in CD4+ T cells of blood and spleen); set-up: species or system mouse; settings: in vivo assay
Method: To expand on the finding above, the in vivo effects of a RARα selective agonist on T cell differentiation was evaluated in a mouse model. Mice were treated with 100 μg of compound 5183 (a RARα agonist) or an equivalent volume of DMSO (vehicle control) every other day for 10 days. Lympocytes from the blood and spleen were then isolated and FoxP3 expression in CD4^+ T cells was assessed.

[5] = tested on: Th17 cell; assay: in vitro Th17 cell differentiation from naive T cells; format: cell-based, mouse; settings: in vitro assay
Method: (§1) To determine whether a RARα selective agonist could affect T cell differentiation, T cells were incubated with a RARα selective agonist to determine its effect on Foxp3 expression. Naive CD4^+ […] cells were purified from a Foxp3-GFP mouse using flow cytometry by sorting and isolating based upon a GFP^+ phenotype. These cells were activated polyclonally with αCD3 in vitro in the presence of IL-2 and TGF-β. These cells were then cultured in media with various concentrations of compound 5183 (a RARα selective agonist) and the expression of FoxP3-GFP was analyzed by flow cytometry. The RARα selective agonist compound 5183 enhanced differentiation of immunosuppressive Treg cells and inhibited differentiation of inflammatory TH17 cells from naëve T cells in vitro (Table 2).

[6] = tested on: Treg cell; assay: in vitro Treg cell differentiation from naive CD4+ T cells (FoxP3-GFP, flow cytometry); format: cell-based, mouse; settings: in vitro assay
Method: as §1

[7] = combination with anti-CTLA-4 antibody

Structure (SMILES): CC1(C)CCC(C)(C)c2cc(C(/C=C/c3cccc(C(=O)O)c3)=N/O)ccc21 [AGN204647]
- survival rate at 50 days ([1]; agent alone, vehicles only 0%): 30%
- survival at 50 days ([1]; combination of anti-CTLA-4 antibody and 10 nM RARγ agonist AGN204647): 100%
- resistance of surviving mice to tumor re-challenge [1, 7]: resistant to re-challenge with twice the dose of live tumor cells
- toxicity [1, 7]: without signs of acute or delayed toxicity

Structure (SMILES): CC(/C=C/[C@@H]1C[C@]1(C)c1ccc2c(c1)C(C)(C)CCC2(C)C)=C\C(=O)O [IRX4204]
- formation of FoxP3+ Treg cells [2]: promotes the formation of FoxP3+ Treg cells
- formation of Th 17 cells [3]: inhibits the formation of Th 17 cells

Structure (SMILES): CCOc1c(Br)cc(C(=O)Nc2ccc(C(=O)O)cc2)cc1C(=O)c1ccc(C)cc1 [AGN196996]
- Th17 cell numbers [4]: increases Th17 cell numbers
- Treg cell numbers [4]: decreases Treg cell numbers
- Th17 cell numbers [5]: increases Th17 cell numbers
- Treg cell numbers [6]: decreases Treg cell numbers
